Common to all, as to assay type: in vivo
Assay [1] has as its system C57BL/6 mice. The assay is described as follows: Bone volume of the spine (lumbar 5) by micro-CT, daily i.p. treatment for 30 days. The conditions noted are these: i.p. daily 30 days, dose not stated. As for the experimental part: (§1) Four month old male C57BL/6 mice were treated daily with saline vehicle or the sclerostin inhibitor of eburnamonine phosphate at several doses (via i.p) for 30 days. Study endpoints included a biochemical marker of bone formation; osteocalcin, measured by EIA Elisa, and measurement of trabecular bone volume by mico-CT analysis on the proximal tibia and spine (lumbar 5). […] See also FIG. 3, showing increase in bone volume for the tibia: 5 mg/kg (D) and 0.33 mg/kg (E).

Assay [2] deals with C57BL/6 mice. Briefly: Serum osteocalcin (bone formation marker) by EIA Elisa, daily i.p. treatment for 30 days. To be noted: for increase in osteocalcin serum levels: FIG. 4. As for the experimental part: as §1
In assay [3] the test system is C57BL/6 mice. The assay is described as follows: Trabecular bone volume of the proximal tibia by micro-CT, daily i.p. treatment for 30 days. To be noted: for increase in tibia long bone bone-volume/total volume over baseline control: 30 days, micro-CT. As for the experimental part:
Using the assay described above and in Journal of Bone and Mineral Research 2006, 21(11), 1738-1749 (incorporated herein in its entirety), compounds of the present invention can be identified as promoting bone growth. For example, the mouse test animal is treated with a predetermined dose of a SOST antagonist candidate for a complete dosing schedule. A control mouse is treated with a control solution, preferably a non-irritating buffer solution or other carrier. Once the dosing schedule has been completed, both test and control animals are examined with sacrifice using micro-CT to determine the quantity of bone formation present.
as §1

Assay [4] relates to C57BL/6 mice. Briefly: Bone volume of the tibia by pQCT after IP treatment (procedure of Example 2). To be noted: 10 mg/kg IP. As for the experimental part:
Four month old male C57BL/6 mice were treated daily with saline vehicle or the sclerostin inhibitor of eburnamonine phosphate at several doses (via i.p) for 30 days. […] See also FIG. 3, showing increase in bone volume for the tibia: 5 mg/kg (D) and 0.33 mg/kg (E). […] Using the procedure set forth in Example 2, vinpocetine citrate was investigated for bone growth.

Where a name gives a salt, the structure may show the parent alone.

Turning to `CCC12CCCN3CCc4c(n(c5ccccc45)C(=O)C1)C32` (stereo not drawn) [eburnamonine phosphate], the “increase in bone volume of lumbar 5 (U-CT)” value in assay [1] turned out to be 52%. The “percent change in serum osteocalcin increase versus saline controls” value in assay [2] (FIG. 2, 5 mg/kg i.p. daily, 30 days, mice) is 35%. For the same molecule, in assay [2] (0.33 mg/kg, mice), the “increase in osteocalcin serum levels” value is 39%. In addition, the “increase in tibia long bone bone-volume/total volume over baseline control” value was found to be 17% in assay [3] (FIG. 1 (B), 5 mg/kg i.p. daily) and 10% in assay [3] (FIG. 1 (C), 1 mg/kg i.p. daily). Moreover, the “increase in tibia long bone bone-volume/total volume compared to baseline controls” value in assay [3] (FIG. 3 (D), 5 mg/kg) is given as 9%; in assay [3] (FIG. 3 (E), 0.33 mg/kg), 17%.

For the molecule `CCOC(=O)C1=CC2(CC)CCCN3CCc4c(n1c1ccccc41)C32` (stereo not drawn) [vinpocetine citrate], the “increase in osteocalcin serum levels” value in assay [2] (10 mg/kg, over baseline) is listed as 62%. Moreover, the “increase in bone volume of the tibia (pQCT)” value in assay [4] came to 8%.

(Values after patent publication US8198292B2, “Vinpocetine and eburnamonine derivatives for promoting bone growth, treating renal damage and cancer, and devices thereof” (Osteogenex, Inc., priority 2008, dated 2012).)
